Where no end group is shown, it is not given here.

Results on two substances are retold here after patent US20230109157A1, “TOPICALLY APPLICABLE PREPARATION COMPRISING PEPTIDES AS ALLERGEN PROTECTION FOR THE SKIN” (BEIERSDORF AG, priority 2020, published 2023).

Data set [1] in a line: Direct peptide reactivity assay (DPRA) with urushiols, Ellman's reagent, 24 h. The conditions noted are these: FIG. 9; urushiols C15:1, C15:2, C15:3 (structures I-V); 24 h reaction, n=3. On the procedure: FIGS. 7A-E, 8, and 9 show investigations into the reactivity of peptides of the invention with allergens over time (x-axis) and after 24 h. The absorbance is plotted on the y-axis. The peptide-allergen reactions were realized according to a direct peptide reactivity assay. The test is referred to as the in-chemico method, that is to say no cells are used, but a chemical reaction is carried out.
The native, still-unbound peptide is detected by reaction with Ellman's reagent and corresponding absorbance measurement. The direct peptide reactivity assay (DPRA) is a chemical method for predicting epidermal protein binding. DPRA uses for example HPLC to measure the depletion of peptides in solution after exposure to test chemicals.
In the DPRA method, the absorbance at 415 nm is determined as the measured variable.
The allergen concentration is in the investigations carried out a standard 5 mM and thus 10 times the concentration of the peptide used (0.5 mM).
The reaction courses shown in FIGS. 8 and 9 were determined colorimetrically through the reaction of the peptide with Ellmann's reagent in a photometer. In this reaction, DTNB ((5,5′-dithiobis-2-nitrobenzoic acid, Ellmann's reagent) is cleaved and attached to the SH residue of the amino acid cysteine of the peptides of the invention (Ac-RFAACAA, RFAACAA). […]
In general terms: DTNB colorimetry detects thiols as they appear.

A further data set deals with Phenion skin models. Kind of data set: H&E staining of cryosections of Phenion skin models. The class given is cell-based. The settings on record: FIG. 5B; 0.5 mM peptide (control). The procedure:
(§1) The investigations were carried out using Phenion FTS full skin models (Phenion, Henkel). These were maintained for 3 days at 37° C. and 7% CO2 in deep-well plates having a […] pore size in the cell culture inserts. The skin models were maintained in 1.5 ml of air-liquid interface medium without phenol red. The medium was changed daily. The test substances were dissolved in ethanol and incubated at room temperature for 24 h. After culturing for 24 h, 25 μl of the substance solution was dripped onto a sterile filter paper that had previously been laid on the skin model. The barrier peptide (0.5 mM AcRFAACAA) had previously been applied to the model as a solution in 100 mM phosphate buffer (pH 7.5). Alternatively, the barrier peptide was applied in a formulation having a content of 0.25% by weight.
(§2) After culturing for a further 24 h, the models were harvested and one half embedded in OCT mounting medium (VWR Q-Path Chemicals), the other half snap-frozen in liquid nitrogen. The supernatant of each model was collected and stored at −20° C.
In further investigations, frozen sections were thawed and incubated for 10 min in 3.7% paraformaldehyde at RT. After three PBS wash steps and one minute in distilled water, they are stained for 3 min in hematoxylin solution. […]

The next data set concerns interleukin 6 (IL6). Kind of data set: Interleukin 6 in supernatants of Phenion FTS full skin models (Bio-Plex multiplex immunoassay). Type of data set: cell-based, Human. The conditions noted are these: FIG. 4, left bar; peptide alone. On the procedure:
as §1, §2
The supernatants were then analyzed (FIGS. 2, 3 and 4).
The supernatants of the Phenion FTS models were analyzed using the Bio-Plex Pro Human Cytokine Screening Panel (Bio-Rad) according to the manufacturer's protocol. […] The cytokine concentrations are calculated on the basis of the standard curves from the Bioplex system. […]

With RFAACAA [Arg Phe Ala Ala Cys Ala Ala], the “reactivity and thus protective activity against urushiols” value in data set [1] is “very high reactivity”.

Regarding “Ac-RFAACAA [Ac-RFAACAA, acetylarginine-phenylalanine-alanine-alanine-cysteine-alanine-alanine]”, in the data set with Phenion skin models, the “skin model histology (H&E), peptide alone” value is reported as “unchanged”. Also, the “interleukin 6 (IL6) concentration, peptide on its own” value in the data set with interleukin 6 (IL6) is recorded as “unchanged”.
